In one assay the target is T1, histamine (H1) receptor (Cavia porcellus, UniProt P31389).
T1 construct: isolated smooth muscle of the guinea-pig ileum; from tissue; host or cells: isolated ileum segments of Dunkin Hartley guinea-pigs
The experiment in a line: Antihistamine (H1) effect: inhibition of histamine-induced contractions of isolated guinea-pig ileum in vitro. Type of assay: cell-based, guinea-pig (Dunkin Hartley). The conditions noted are these: histamine 5 × 10^-6 mol/l, test substance 10^-6 mol/l. An outline of the steps: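 Dunkin Hartley guinea-pig ileum segments (300-500 g animals) in Krebs-Henseleit, pH 7.4, 5% CO2/95% O2, 1 g tension, isotonic recording. Compound at 10^-6 mol/l for 30 s before histamine 5×10^-6 mol/l; contraction measured over 30 s, repeated 10 min after washout, expressed as % inhibition.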

The target of a further assay is T2, cyclooxygenase (Mus musculus, UniProt P22437).
T2 construct: A cell suspension containing peritoneal cells of male mice 8-10 weeks old was obtained; endogenous in cells; host or cells: mouse peritoneal macrophages (male mice 8-10 weeks old), zymosan-stimulated
T2 sequence (P22437 27-602): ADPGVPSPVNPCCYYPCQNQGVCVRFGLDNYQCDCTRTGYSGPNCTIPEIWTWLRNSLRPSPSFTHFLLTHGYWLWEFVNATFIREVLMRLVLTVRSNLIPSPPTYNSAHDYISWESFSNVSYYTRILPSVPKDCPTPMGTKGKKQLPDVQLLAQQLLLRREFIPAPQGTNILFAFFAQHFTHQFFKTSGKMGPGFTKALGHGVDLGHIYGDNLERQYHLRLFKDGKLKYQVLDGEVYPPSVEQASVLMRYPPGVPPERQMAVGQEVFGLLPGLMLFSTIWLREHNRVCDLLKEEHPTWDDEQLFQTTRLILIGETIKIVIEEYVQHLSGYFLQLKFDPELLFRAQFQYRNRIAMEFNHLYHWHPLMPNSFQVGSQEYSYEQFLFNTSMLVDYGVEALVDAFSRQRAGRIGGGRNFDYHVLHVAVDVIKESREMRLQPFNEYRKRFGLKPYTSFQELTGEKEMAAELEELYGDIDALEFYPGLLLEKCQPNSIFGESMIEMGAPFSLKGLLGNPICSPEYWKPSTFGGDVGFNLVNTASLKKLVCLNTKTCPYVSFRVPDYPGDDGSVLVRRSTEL
Put plainly: Cyclooxygenase inhibition: release of 6-keto-PGF1 α from zymosan-stimulated mouse peritoneal macrophage cells. The format is cell-based. The conditions noted are these: 10^-5 mol/l, read-out: In vitro % inhibition effect on the release of 6-keto-PGF1 α. Put shortly: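 Adherent peritoneal macrophages from 8–10-week male mice were preincubated 15 min with compound at 10^-5 M (1% dimethylformamide vehicle) in HBSS/10 mM Hepes, then stimulated with zymosan […] for 2 h. LTC4 and 6-keto-PGF1 α in supernatants were quantified by EIA, giving % inhibition versus zymosan controls.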

Setting [1] is: after 30 sec., read-out: in vitro (H1) receptor antagonism % inhibitory effect on histamine-induced contractions of the Ileum, after 30 sec.
Setting [2] is: after 10 min. (after washing), read-out: in vitro (H1) receptor antagonism % inhibitory effect on histamine-induced contractions of the Ileum, after 10 min.

Read-outs that look alike come from different tables or passages of the source.

T1 sequence (P31389 whole entry): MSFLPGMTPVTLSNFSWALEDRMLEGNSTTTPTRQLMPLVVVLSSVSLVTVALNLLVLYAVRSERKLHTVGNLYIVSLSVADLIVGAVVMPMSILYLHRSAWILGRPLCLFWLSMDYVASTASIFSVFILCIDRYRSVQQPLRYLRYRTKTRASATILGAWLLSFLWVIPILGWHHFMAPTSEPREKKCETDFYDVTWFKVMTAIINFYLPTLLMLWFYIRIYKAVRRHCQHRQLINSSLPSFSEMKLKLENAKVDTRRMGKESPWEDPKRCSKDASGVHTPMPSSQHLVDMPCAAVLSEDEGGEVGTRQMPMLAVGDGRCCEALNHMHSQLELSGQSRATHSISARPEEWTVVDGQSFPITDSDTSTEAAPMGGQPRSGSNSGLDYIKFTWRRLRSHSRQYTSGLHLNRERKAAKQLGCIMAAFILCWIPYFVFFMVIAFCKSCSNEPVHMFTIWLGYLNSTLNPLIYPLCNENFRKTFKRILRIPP

`COc1ccc(C2CCc3cc(OC)cc4c(CCN5CCN(c6cc(C)ccn6)CC5)c(C)n2c34)cc1` (stereo not drawn) [Example 65]: the inhibition at 1 µM on histamine (H1) receptor (setting [1]) was found to be 21%; at histamine (H1) receptor (setting [2]) it was 48%. The inhibition at 10 µM on cyclooxygenase came out at 52%.
As for `Cc1ccnc(N2CCN(CCc3c(C)n4c5c(cc(C(=O)c6ccccc6)cc35)CCC4)CC2)c1` [Example 66], the results for the inhibition at 1 µM at histamine (H1) receptor (setting [1]) and on histamine (H1) receptor (setting [2]) were 10% and 71%, respectively. For the same compound, on cyclooxygenase, the inhibition at 10 µM is 72%.
Consider `CC(=O)c1cc2c3c(c1)c(CCN1CCN(c4cc(C)ccn4)CC1)c(C)n3CCC2` [Example 67], for which the figures for the inhibition at 1 µM on histamine (H1) receptor (setting [1]) and on histamine (H1) receptor (setting [2]) were 59% and 93%, respectively. In addition, at cyclooxygenase, the inhibition at 10 µM amounted to 36%.
With `CCCCC1CCc2cc(O)cc3c(CCN4CCN(c5cc(C)ccn5)CC4)c(C)n1c23` (stereo not drawn) [Example 76], the inhibition at 1 µM at histamine (H1) receptor (setting [1]) is 3%; at histamine (H1) receptor (setting [2]), 67%. For the same compound, on cyclooxygenase, the inhibition at 10 µM is 67%.
For `CNc1cc2c3c(c1)c(CCN1CCN(c4cc(C)ccn4)CC1)c(C)n3CCC2` [Example 80], the “in vitro (H1) receptor antagonism % inhibitory effect on histamine-induced contractions of the Ileum, after 30 sec.” value on histamine (H1) receptor (after 30 sec.) turned out to be 15%. Besides, the “in vitro (H1) receptor antagonism % inhibitory effect on histamine-induced contractions of the Ileum, after 10 min.” value on histamine (H1) receptor (after 10 min. (after washing)) amounted to 63%. Also, the inhibition at 10 µM on cyclooxygenase was 12%.
In the case of `Cc1ccnc(N2CCN(CCc3c(C)n4c5c(cc(C(=O)C6CCCCC6)cc35)CCC4)CC2)c1` [Example 83], the inhibition at 1 µM on histamine (H1) receptor (setting [1]) worked out at 12%; at histamine (H1) receptor (setting [2]) it was 52%. Further, the inhibition at 10 µM at cyclooxygenase worked out at 29%.
As for `Cc1ccnc(N2CCN(CCc3c(C)n4c5c(ccc(C(O)C(C)C)c35)SCC4)CC2)c1` (stereo not drawn) [Example 90], the inhibition at 1 µM at histamine (H1) receptor (setting [1]) was 19%; on histamine (H1) receptor (setting [2]), 88%. The inhibition at 10 µM at cyclooxygenase was 56%.
With `Cc1ccnc(N2CCN(CCc3c(C)n4c5c(ccc(C(=O)C(C)C)c35)SCC4)CC2)c1` [Example 91], the inhibition at 1 µM at histamine (H1) receptor (setting [1]) is 16%; on histamine (H1) receptor (setting [2]), 83%. For the same compound, on cyclooxygenase, the inhibition at 10 µM is 54%.
